The source of these data is patent US20170056496A1 (Sanofi, priority 2008, published 2017).

The conditions of data set [1]: for Comments: toxicity statement: toxicity = ≧20% body weight loss or 10% drug death.
A further data set concerns the target T1, murine CD38 (Mus musculus, UniProt P56528).
T1 sequence (P56528 1-304): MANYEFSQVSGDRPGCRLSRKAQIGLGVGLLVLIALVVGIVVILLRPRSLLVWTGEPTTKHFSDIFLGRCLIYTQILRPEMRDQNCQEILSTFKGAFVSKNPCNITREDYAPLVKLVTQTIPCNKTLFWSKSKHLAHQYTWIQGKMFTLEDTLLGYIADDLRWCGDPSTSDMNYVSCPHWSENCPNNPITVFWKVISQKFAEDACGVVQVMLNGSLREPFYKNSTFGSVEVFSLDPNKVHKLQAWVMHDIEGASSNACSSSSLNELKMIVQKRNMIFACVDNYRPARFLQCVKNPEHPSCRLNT
The data set can be described thus: Cross-reactivity of the antibody with murine CD38. The class given is binding.

The mark [2] stands for this setting: CPA alone, 286.1 mg/kg/inj (total 572.2), listed as CPA, 286.1 mg/kg.

Where two headings read alike, the source gives them in different places.

Take `O=P1(N(CCCl)CCCl)NCCCO1` (stereo not shown) [cyclophosphamide]: the “deaths (deaths out of mice)” value in data set [1] (setting [2]) was “⅗”. The “Comments: toxicity statement” value in data set [1] (CPA alone, 286.1 mg/kg/inj (total 572.2), 286.1 mg/kg) is listed as “Toxicity”; in data set [1] (setting [2]), “Toxic”. Besides, the “deaths, percent of mice” value in data set [1] (CPA alone, 286.1 mg/kg/injection) is 60%. The “% BWC at nadir (day)” value in data set [1] (CPA alone, IV day 11, 15, 68.2 mg/kg/inj (total 136.4), nadir day 18) is −3.8 (18) %; in data set [1] (CPA alone, IV day 11, 15, 110.0 mg/kg/inj (total 220.0), nadir day 17), −5.2 (17) %; in data set [1] (CPA alone, IV day 11, 15, 286.1 mg/kg/inj (total 572.2), nadir day 20), −21.2 (20) %. In addition, the “Comments: toxicity statement (HNTD = highest nontoxic dose)” value in data set [1] (CPA alone, […] (total 354.8)) is recorded as “HNTD”.

Take “hu38SB19: humanized anti-CD38 monoclonal antibody 38SB19; VH SEQ ID NO: 66, VL chosen from SEQ ID NOS: 62 and 64”: the “% BWC at nadir (day)” value in data set [1] (mouse, in vivo, iv, 40 mg/kg) was “+5.4 (19) %”. In the data set with murine CD38, the “cross-reactivity with murine CD38” value is listed as “lack of cross-reactivity”.
